# Assay results reported in patent US11655235B2, “Pyrrolidine and piperidine compounds” (YUHAN CORPORATION, priority 2019, dated 2023).
# Where two headings read alike, the source gives them in different places.
# Assays:
# Assay type in all cases: biochemical
# Recombinant human FAP [1] = target: T1, Recombinant human FAP (Homo sapiens, UniProt Q12884); assay: FAP inhibition, fluorogenic substrate Z-Gly-Pro-AMC
# T1 construct: purchased R&D systems
# T1 sequence (Q12884 1-760): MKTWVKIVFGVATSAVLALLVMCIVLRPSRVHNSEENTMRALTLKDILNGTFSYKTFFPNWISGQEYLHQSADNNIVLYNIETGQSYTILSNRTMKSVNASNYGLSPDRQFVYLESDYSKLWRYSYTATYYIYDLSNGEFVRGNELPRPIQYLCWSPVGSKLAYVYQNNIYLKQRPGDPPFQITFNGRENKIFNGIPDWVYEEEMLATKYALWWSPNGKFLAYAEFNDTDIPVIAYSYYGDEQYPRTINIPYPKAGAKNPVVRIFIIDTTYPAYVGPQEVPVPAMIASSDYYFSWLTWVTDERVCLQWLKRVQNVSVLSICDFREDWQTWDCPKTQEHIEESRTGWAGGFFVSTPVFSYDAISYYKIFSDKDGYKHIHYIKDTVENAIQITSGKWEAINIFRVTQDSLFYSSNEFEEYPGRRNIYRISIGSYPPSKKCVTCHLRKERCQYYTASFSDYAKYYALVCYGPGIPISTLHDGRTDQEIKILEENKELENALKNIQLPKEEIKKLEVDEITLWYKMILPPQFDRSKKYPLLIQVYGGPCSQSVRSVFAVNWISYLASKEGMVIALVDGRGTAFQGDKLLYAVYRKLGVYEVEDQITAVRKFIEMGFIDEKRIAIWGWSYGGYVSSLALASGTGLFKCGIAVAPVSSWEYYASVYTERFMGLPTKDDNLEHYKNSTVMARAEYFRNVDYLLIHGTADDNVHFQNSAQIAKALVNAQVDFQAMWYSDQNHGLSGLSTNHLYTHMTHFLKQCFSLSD
# Summary of the method: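 Recombinant human FAP, 10 ng per reaction, in 50 mM Tris pH 7.5 with 1 M NaCl and 1 mg/ml BSA at 25° C; substrate Z-Gly-Pro-AMC, ≤0.1% DMSO. AMC fluorescence read at ex 380/em 460 nm; % signal-rate decrease vs no-inhibitor control, 8-point curves fitted to a four-parameter logistic for IC50.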
# recombinant human DPP7 = target: T2, recombinant human DPP7 (Homo sapiens, UniProt Q9UHL4); assay: DPP7 inhibition, fluorogenic substrate Lys-Pro-AMC
# T2 construct: purchased R&D Systems
# Protocol: (§1) The compounds according to the present technology were evaluated in terms of the inhibitory effect on the activity of dipeptidyl peptidases including FAP by using a substrate producing fluorescent substances upon enzymatic decomposition. The test was conducted at 25° C. to get a final reaction volume of 100 μL in a 96 black well plate. […] Briefly, the test compounds were dissolved in dimethyl sulfoxide (DMSO) at a concentration of 20 mM and then subjected to serial dilution, thereby creating an 8 point curve. As for the control group, a 6 point curve created by serial dilution of Talabostat in the same buffer solution was used. Fluorescence intensity was measured using a microplate reader (Flexstation3, Molecular Devices) under the wavelength condition exciting at 380 nm and reading the emission at 460 nm. The inhibitory effect of the test compounds was measured as a decrease (%) in the signal rate as compared to the control group without any inhibitor. Data was fixed to a logistic model with four variables and IC50 value was calculated using GraphPad Prism program. As for recombinant human DPP4 (R&D Systems), 25 mM tris (pH 8.0) buffer as a buffer solution and H-Gly-Pro-AMC (Bachem) as a substrate were used. As for recombinant human DPP7 (R&D Systems), 25 mM MES (pH 6.0) buffer as a buffer solution and Lys-Pro-AMC (Bachem) as a substrate were used. As for recombinant human DPP8 (PBS Bioscience), as a buffer solution, a 10 mM tris (pH 7.4) buffer comprising 10 mM of magnesium chloride and 0.05% of Tween 20, and Z-Ala-Pro-AMC (BPS Bioscience) as a substrate were used. As for recombinant human DPP9 (R&D Systems), a 25 mM tris (pH 8.0) buffer as a buffer solution and H-Gly-Pro-AMC (Bachem) as a substrate were used. As for recombinant human PREP (R&D System), as a buffer solution, a 25 mM tris (pH 7.5) buffer comprising 250 mM sodium chloride and 2.5 mM DTT (Dithiolthreitol), and Z-Gly-Pro-AMC (Bachem) as a substrate were used. The evaluation was made by using 10 ng of DPP4, PDD7, and PREP, 20 ng of DPP8, and 50 ng of DPP9 based on the final reaction. In the evaluation of DPP4, the test compounds were subjected to serial dilution in a buffer under the condition containing up to 0.1% of DMSO. In the evaluation of DPP7, DPP8, DPP9, and PREP, the test compounds were subjected to serial dilution in each buffer under the condition containing up to 0.5% of DMSO.
# recombinant human DPP9 = target: T3, recombinant human DPP9 (Homo sapiens, UniProt Q86TI2); assay: DPP9 inhibition, fluorogenic substrate H-Gly-Pro-AMC; details: at 1 μM
# T3 construct: purchased R&D Systems
# T3 sequence (Q86TI2 whole entry): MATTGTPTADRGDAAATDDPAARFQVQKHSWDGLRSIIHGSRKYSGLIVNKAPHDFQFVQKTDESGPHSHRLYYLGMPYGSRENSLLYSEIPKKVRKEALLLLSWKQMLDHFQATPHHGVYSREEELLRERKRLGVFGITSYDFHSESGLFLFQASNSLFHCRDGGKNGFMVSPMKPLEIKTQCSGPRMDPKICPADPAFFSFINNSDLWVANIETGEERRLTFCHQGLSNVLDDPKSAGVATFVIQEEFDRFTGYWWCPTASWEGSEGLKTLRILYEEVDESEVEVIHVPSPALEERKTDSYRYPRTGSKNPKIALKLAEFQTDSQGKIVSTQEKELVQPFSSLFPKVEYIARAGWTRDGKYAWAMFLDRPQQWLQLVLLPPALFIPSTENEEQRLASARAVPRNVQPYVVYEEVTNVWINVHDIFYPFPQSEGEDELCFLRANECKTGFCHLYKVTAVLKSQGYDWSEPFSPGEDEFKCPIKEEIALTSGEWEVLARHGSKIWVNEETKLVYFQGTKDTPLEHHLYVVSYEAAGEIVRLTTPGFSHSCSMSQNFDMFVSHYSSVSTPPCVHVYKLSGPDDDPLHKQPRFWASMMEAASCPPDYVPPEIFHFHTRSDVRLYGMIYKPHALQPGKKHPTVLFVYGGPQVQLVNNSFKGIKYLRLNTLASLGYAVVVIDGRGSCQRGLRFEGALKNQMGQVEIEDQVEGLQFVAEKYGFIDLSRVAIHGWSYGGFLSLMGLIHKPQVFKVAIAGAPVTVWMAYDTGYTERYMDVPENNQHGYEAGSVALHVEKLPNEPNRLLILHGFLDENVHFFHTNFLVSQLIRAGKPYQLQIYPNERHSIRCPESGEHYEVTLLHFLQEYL
# Protocol: as §1
# DPP4 = DPP4 (Homo sapiens, UniProt P27487); assay: DPP4 inhibition, fluorogenic substrate H-Gly-Pro-AMC; set-up: purchased R&D Systems
# DPP4, sequence (P27487 whole entry): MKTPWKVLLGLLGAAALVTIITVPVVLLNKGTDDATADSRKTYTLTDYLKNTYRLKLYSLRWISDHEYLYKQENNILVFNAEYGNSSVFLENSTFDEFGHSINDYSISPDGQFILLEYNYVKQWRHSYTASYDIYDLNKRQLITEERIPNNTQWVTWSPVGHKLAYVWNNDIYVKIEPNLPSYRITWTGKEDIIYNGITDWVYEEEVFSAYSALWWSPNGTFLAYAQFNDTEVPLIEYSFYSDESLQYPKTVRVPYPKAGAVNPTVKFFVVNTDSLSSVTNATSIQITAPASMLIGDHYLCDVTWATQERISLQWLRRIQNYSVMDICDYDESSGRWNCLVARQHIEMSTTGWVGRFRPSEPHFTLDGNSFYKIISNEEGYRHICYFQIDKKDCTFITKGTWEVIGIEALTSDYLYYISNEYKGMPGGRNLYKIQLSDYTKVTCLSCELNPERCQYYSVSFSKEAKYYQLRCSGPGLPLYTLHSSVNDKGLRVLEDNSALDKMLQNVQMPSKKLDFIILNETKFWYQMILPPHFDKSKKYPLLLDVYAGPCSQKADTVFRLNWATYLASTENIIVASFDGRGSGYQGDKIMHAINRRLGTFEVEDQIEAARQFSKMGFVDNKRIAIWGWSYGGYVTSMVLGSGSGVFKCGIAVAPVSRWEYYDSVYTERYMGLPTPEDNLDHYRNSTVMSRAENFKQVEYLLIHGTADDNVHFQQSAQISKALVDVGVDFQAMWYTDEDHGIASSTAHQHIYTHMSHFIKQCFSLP
# Recombinant human FAP [2] = target: T1, Recombinant human FAP; assay: FAP FRET assay, FGF21-sequence FRET peptide substrate; details: FRET peptide with human FGF21 sequence, 6 μM, 37° C.
# Protocol: The compounds according to the present technology were evaluated in terms of the inhibitory effect on the activity of dipeptidyl peptidases including FAP by using a substrate producing fluorescent substances upon enzymatic decomposition. The test was conducted at 25° C. to get a final reaction volume of 100 μL in a 96 black well plate. […] Briefly, the test compounds were dissolved in dimethyl sulfoxide (DMSO) at a concentration of 20 mM and then subjected to serial dilution, thereby creating an 8 point curve. As for the control group, a 6 point curve created by serial dilution of Talabostat in the same buffer solution was used. Fluorescence intensity was measured using a microplate reader (Flexstation3, Molecular Devices) under the wavelength condition exciting at 380 nm and reading the emission at 460 nm. The inhibitory effect of the test compounds was measured as a decrease (%) in the signal rate as compared to the control group without any inhibitor. Data was fixed to a logistic model with four variables and IC50 value was calculated using GraphPad Prism program. For the FAP FRET assay, recombinant human FAP (R&D systems) was diluted with 50 mM HEPES (pH 7.2) buffer comprising 150 mM of sodium chloride, 0.1 mg/ml of bovine serum albumin (BSA) and 1 mM EDTA to be 10 ng per final reaction. The test compounds were subjected to serial dilution in a buffer under the condition containing up to 0.1% of DMSO. FRET peptides containing human FGF21 sequence ([…]) conjugated with HyLite Fluor 488 and dark quencher QXL 520 (Anaspec) was used as a substrate. By dissolving in DMSO and then diluting in the same buffer, the substrate was added to be 6 μM per final reaction. All reactions of FRET assay was conducted at 37° C.
# [3] = 25° C., Z-Gly-Pro-AMC substrate
# [4] = 25° C., H-Gly-Pro-AMC substrate
# [5] = recombinant human FAP, substrate Z-Gly-Pro-AMC
SMILES,IC50 (Recombinant human FAP [2]) [nM],IC50 (DPP4; recombinant human DPP4) [nM],other results
"N#C[C@@H]1CCCN1C(=O)CN1CC[C@H](Oc2ccnc3c(C(F)(F)F)cccc23)C1 [Example 95, (S)-1-(2-((S)-3-((8-(trifluoromethyl)quinolin-4-yl)oxy)pyrrolidin-1-yl)acetyl)pyrrolidine-2-carbonitrile]",–,–,IC50 (Recombinant human FAP [1]; [3]): 3.3 nM; IC50 (recombinant human DPP7): 4740 nM; DPP9 inhibition % at 1 μM (recombinant human DPP9): No inhibition**; IC50 (DPP4; [4]): > 1000 nM
"N#C[C@@H]1CCCN1C(=O)CN1CCC(Nc2cccc3ncccc23)CC1 [Example 110, (S)-1-(2-(4-(quinolin-5-ylamino)piperidin-1-yl)acetyl)pyrrolidine-2-carbonitrile]",–,–,IC50 (Recombinant human FAP [1]; [3]): 2.2 nM; IC50 (recombinant human DPP7): 500 nM; IC50 (DPP4; [4]): > 1000 nM
"COc1ccc2nccc(OC3CCN(CC(=O)N4C[C@@H](F)C[C@H]4C#N)CC3)c2c1 [Example 128, (2S,4S)-4-fluoro-1-(2-(4-((6-methoxyquinolin-4-yl)oxy)piperidin-1-yl)acetyl)pyrrolidine-2-carbonitrile]",–,–,IC50 (Recombinant human FAP [1]; [3]): 0.78 nM; IC50 (recombinant human DPP7): 5900 nM; IC50 (DPP4; [4]): > 10000 nM
"CN(c1cc(F)cc2ncccc12)[C@H]1CCN(CC(=O)N2C[C@@H](F)C[C@H]2C#N)C1 [Example 157, (2S,4S)-4-fluoro-1-(2-((S)-3-((7-fluoroquinolin-5-yl)(methyl)amino)pyrrolidin-1-yl)acetyl)pyrrolidine-2-carbonitrile]",20.2,2160,–
"COc1ccc2ncccc2c1N[C@@H]1CCN(CC(=O)N2C[C@@H](F)C[C@H]2C#N)C1 [Example 176, (2S,4S)-4-fluoro-1-[2-[(3R)-3-[(6-methoxy-5-quinolyl)amino]pyrrolidin-1-yl]acetyl]pyrrolidine-2-carbonitrile]",22.2,1510,–
"Cc1ccc2nccc(N[C@@H]3CCN(CC(=O)N4C[C@@H](F)C[C@H]4C#N)C3)c2c1 [Example 187, (2S,4S)-4-fluoro-1-[2-[(3R)-3-[(6-methyl-4-quinolyl)amino]pyrrolidin-1-yl]acetyl]pyrrolidine-2-carbonitrile]",23.9,17600,–
"COc1ccc2nccc(N[C@@H]3CCN(CC(=O)N4C[C@@H](F)C[C@H]4C#N)C3)c2c1 [Example 188, (2S,4S)-4-fluoro-1-[2-[(3R)-3-[(6-methoxy-4-quinolyl)amino]pyrrolidin-1-yl]acetyl]pyrrolidine-2-carbonitrile]",21.5,15200,–
"N#C[C@@H]1C[C@H](F)CN1C(=O)CN1CC[C@@H](Nc2ccnc3ccc(F)cc23)C1 [Example 191, (2S,4S)-4-fluoro-1-[2-[(3R)-3-[(6-fluoro-4-quinolyl)amino]pyrrolidin-1-yl]acetyl]pyrrolidine-2-carbonitrile]",19.4,3220,–
"N#C[C@@H]1C[C@H](F)CN1C(=O)CN1CC[C@@H](Nc2ccnc3ccc(Cl)cc23)C1 [Example 192, (2S,4S)-4-fluoro-1-[2-[(3R)-3-[(6-chloro-4-quinolyl)amino]pyrrolidin-1-yl]acetyl]pyrrolidine-2-carbonitrile]",15.6,5560,–
"N#C[C@@H]1CCCN1C(=O)CN1CC[C@@H](Nc2ccc3nc(Cl)ccc3c2)C1 [Example 206, (2S)-1-[2-[(3R)-3-[(2-chloro-6-quinolyl)amino]pyrrolidin-1-yl]acetyl]pyrrolidine-2-carbonitrile]",32.8,–,–
"N#C[C@@H]1C[C@H](F)CN1C(=O)CN1CC[C@@H](Nc2ccc3nc(Cl)ccc3c2)C1 [Example 207, (2S,4S)-4-fluoro-1-[2-[(3R)-3-[(2-chloro-6-quinolyl)amino]pyrrolidin-1-yl]acetyl]pyrrolidine-2-carbonitrile]",17.9,–,–
"N#C[C@@H]1C[C@H](F)CN1C(=O)CN1CC[C@H](Nc2ccc3cccnc3c2)C1 [Example 251, (2S,4S)-4-fluoro-1-[2-[(3S)-3-(7-quinolylamino)pyrrolidin-1-yl]acetyl]pyrrolidine-2-carbonitrile]",–,2310,IC50 (Recombinant human FAP [1]; [5]): 3.1 nM; IC50 (recombinant human DPP7; recombinant human DPP7): 199 nM
"CN(c1cc2ccccc2cn1)C1CCN(CC(=O)N2CCC[C@H]2C#N)CC1 [Example 321, (2S)-1-[2-[4-[3-isoquinolyl(methyl)amino]-1-piperidyl]acetyl]pyrrolidine-2-carbonitrile]",–,> 10000,IC50 (Recombinant human FAP [1]; [5]): 8.8 nM; IC50 (recombinant human DPP7; recombinant human DPP7): 10500 nM
"N#C[C@@H]1C[C@H](F)CN1C(=O)CN1CCC(Nc2cccc3nc[nH]c23)CC1 [Example 384, (2S,4S)-1-[2-[4-(3H-benzimidazol-4-ylamino)-1-piperidyl]acetyl]-4-fluoro-pyrrolidine-2-carbonitrile]",74.9,–,–
"N#C[C@@H]1C[C@H](F)CN1C(=O)CN1CCC(Nc2cc(Cl)nc(N3CCOCC3)c2)CC1 [Example 385, (2S,4S)-1-[2-[4-[(2-chloro-6-morpholino-4-pyridyl)amino]-1-piperidyl]acetyl]-4-fluoro-pyrrolidine-2-carbonitrile]",77.4,–,–
"N#C[C@@H]1C[C@H](F)CN1C(=O)CN1CCC(Nc2cccc3ncc(C(F)(F)F)cc23)CC1 [Example 386, (2S,4S)-4-fluoro-1-[2-[4-[[3-(trifluoromethyl)-5-quinolyl]amino]-1-piperidyl]acetyl]pyrrolidine-2-carbonitrile]",19.8,–,–
"N#C[C@@H]1CCCN1C(=O)CN1CCC(Nc2cccc3ncc(C(F)(F)F)cc23)CC1 [Example 387, (2S)-1-[2-[4-[[3-(trifluoromethyl)-5-quinolyl]amino]-1-piperidyl]acetyl]pyrrolidine-2-carbonitrile]",32.4,–,–
